Test results published in PubChem BioAssay (NCI).
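Grown in 96-well plates, cells were treated for 48 hours with each compound at five concentrations. Insufficient inhibition: endpoint recorded as highest concentration tested. Here, GI50 denotes the concentration required for 50% inhibition of growth. Definition used: TGI = concentration required for complete inhibition of growth.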

How the values were obtained:
Experiment in all cases: growth of human tumour cells (NCI), 48 h
U251 CNS = system: U251 CNS
EKVX NSCLC = system: EKVX NSCLC
HL-60(TB) leukemia = system: HL-60(TB) leukemia
SN12C renal = system: SN12C renal
NCI-H522 lung = system: NCI-H522 lung
TK-10 renal = system: TK-10 renal
OVCAR-3 ovarian = system: OVCAR-3 ovarian
NCI-H23 lung = system: NCI-H23 lung
OVCAR-4 ovarian = system: OVCAR-4 ovarian
NCI/ADR-RES ovarian = system: NCI/ADR-RES ovarian

Compound	GI50 (U251 CNS) [µM]	TGI (U251 CNS) [µM]	GI50 (EKVX NSCLC) [µM]	TGI (EKVX NSCLC) [µM]	GI50 (HL-60(TB) leukemia) [µM]	TGI (HL-60(TB) leukemia) [µM]	GI50 (SN12C renal) [µM]	TGI (SN12C renal) [µM]	GI50 (NCI-H522 lung) [µM]	TGI (NCI-H522 lung) [µM]	GI50 (TK-10 renal) [µM]	TGI (TK-10 renal) [µM]	GI50 (OVCAR-3 ovarian) [nM]	TGI (OVCAR-3 ovarian) [µM]	GI50 (NCI-H23 lung) [µM]	TGI (NCI-H23 lung) [µM]	TGI (OVCAR-4 ovarian) [µM]	GI50 (NCI/ADR-RES ovarian) [µM]	TGI (NCI/ADR-RES ovarian) [µM]	GI50 (OVCAR-4 ovarian) [µM]
CC(=O)NS(=O)(=O)c1ccc(-n2nc(-c3ccccc3)cc2C2=CC(=O)C=CC2=O)cc1	> 100	> 100	> 100	> 100	> 100	> 100	> 100	> 100	> 100	> 100	75.4	> 100	> 100000	> 100	> 100	> 100				
N[C@H](C(=O)O)[C@@H](Cl)CC(=O)O		> 100		> 100		> 100		> 100		> 100		> 100		> 100		> 100	> 100			
N=C1C(c2nc(-c3ccc(Br)cc3)cs2)=C(O)CN1CC1CCCO1 (centres undefined)	> 100	> 100	> 100	> 100	> 100	> 100	> 100	> 100			> 100	> 100			> 100	> 100		> 100	> 100	
CCCCCCCCCCCCCCC(O)C1CCC(C(O)CCC(O)CCCCCC(O)CC2=CC(C)OC2=O)O1 (centres undefined)		20.9		16.2		1.56		9.24		7.4		17.9		4.76		12.1	8.89			
O=C1C2=C(c3ccccc31)C(c1ccc(Cl)cc1)NC(=S)N2 (centres undefined)		33.6		> 100		37.8		40.3		56.2		48.9		39.6		40.5	37.8			
COc1cc(C(=O)C/C(CCC(=O)Nc2ccc(Cl)cc2Cl)=N/Nc2nnc(C)n2N)ccc1O		> 100		> 100		> 100		> 100		> 100		> 100		> 100		> 100				
CCC(=O)OC1=CN2C(=NC(c3ccc(N)cc3)=CC2c2cc(OC)c(OC)c(OC)c2)S1 (centres undefined)	3.49	13.8			3.01	> 100	4.34	22.2	3.49	12.6	4	16.1	2470	5.56	5.82	35.6	31.9	3.73	> 100	4.14
O=c1cccccc1NCCNc1cccccc1=O		> 100		> 100		> 100		27.9		> 100				> 100		> 100	> 100			
O=C(Nc1ccccc1C(=O)O)C(=O)C(C(=O)c1ccccc1-c1ccccc1)C1OC(=O)c2ccccc21 (centres undefined)		28.9		58.6		70.6		39.1		30.6		29.6		34.3		40.5	> 100			
C[C@@H](c1ccccc1)N(CC#N)C1CCC[C@H]1O (some centres undefined)		> 100		> 100		> 100		> 100		> 100		> 100		> 100		> 100	> 100			
